Results on 93 compounds are retold here after PubChem BioAssay AID463203 (Broad Institute, 2010).

Each structure is given as a SMILES string. Activity calls are given as the source filed them.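 The calls were made as follows: active = more than half of replicate measurements showing over 20% loss of kinase signal relative to plate controls; inconclusive = some but at most half of replicates over 20% loss; inactive = no replicate over 20% signal loss.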 Bounds are passed on as bounds.

Chain of Glycogen synthase kinase-3 alpha (Homo sapiens) (P49840 whole entry, looked up): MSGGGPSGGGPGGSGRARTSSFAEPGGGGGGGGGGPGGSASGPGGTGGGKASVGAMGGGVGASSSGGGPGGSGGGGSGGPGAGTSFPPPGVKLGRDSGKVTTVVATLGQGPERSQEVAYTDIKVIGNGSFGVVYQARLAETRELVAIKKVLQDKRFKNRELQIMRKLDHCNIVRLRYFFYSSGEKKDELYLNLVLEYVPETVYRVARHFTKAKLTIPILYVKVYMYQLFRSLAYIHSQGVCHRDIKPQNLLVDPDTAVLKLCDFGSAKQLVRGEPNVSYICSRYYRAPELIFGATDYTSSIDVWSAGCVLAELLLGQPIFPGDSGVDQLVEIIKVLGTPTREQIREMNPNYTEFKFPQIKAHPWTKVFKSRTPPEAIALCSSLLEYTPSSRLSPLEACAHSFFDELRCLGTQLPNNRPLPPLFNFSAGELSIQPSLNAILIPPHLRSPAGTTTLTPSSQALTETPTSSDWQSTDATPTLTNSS

The assay addresses Glycogen synthase kinase-3 alpha (Homo sapiens) (UniProt P49840). As to the kind of experiment: concentration-response blocking of human GSK3A – biochemical, luminescence, cell-free homogeneous, retest, dose response (AID 463203). Particulars: GSK-3 alpha enzyme, ADP-Glo luminescence, 60 min. Background: ADP-Glo first removes unused ATP, then detects ADP through luciferase.
For the compound `COc1ccc(-c2nc(N)ncc2-c2ccc(OC)c(OC)c2)c(O)c1`, the AC50 was 29.2 µM.
The value for `O=C(O)c1cccc2c1C(=O)c1cc(Br)ccc1S2(=O)=O` was > 30 µM (inactive).
Take `COc1cc(/C=N/O)ccc1OCc1ccc([N+](=O)[O-])cc1`: the AC50 was > 30 µM (inactive).
The result for `CCn1c(SCC(=O)N/N=C/C=C\c2ccco2)nc2ccccc21` reads > 30 µM (inactive); that for `COc1cc(Br)c(C2C(C#N)=C(N)Oc3n[nH]c(-c4cccnc4)c32)cc1OC` (stereo not drawn), > 30 µM (inactive); that for `CCOc1ccc(Nc2nc(NCc3ccco3)nc(N)c2[N+](=O)[O-])cc1`, > 30 µM (inactive).
The result for `CCn1c(SCc2nc3sc(C(=O)O)c(C)c3c(=O)[nH]2)nc2ccccc21` reads 10.8 µM.
The result for `COc1cc(C2c3sc(=O)[nH]c3SC3C(=O)N(c4ccc(Br)cc4)C(=O)C32)ccc1O` (stereo not drawn) reads > 30 µM (inactive); that for `CCCCC(=O)Nc1nn(CCC)c2nc3ccccc3cc12`, > 30 µM (inactive).
In the case of `Cn1ccnc1SCC(=O)Nc1ccc(Cl)cn1`, the AC50 is 23.1 µM.
The value for `CCN(CC)Cc1c(C(=O)N/N=C(\C)c2ccncc2)nnn1-c1nonc1N` was 9.96 µM; that for `CC1=C(C(=O)OCc2ccc3c(c2)OCO3)C(c2ccc(F)cc2)NC(=O)N1` (stereo not drawn) was 20.3 µM; that for `Cn1cc(C(=O)c2cccc(Cl)c2)cc1/C=N\O` was 28.3 µM.
The value for `COc1ccccc1-n1c(O)c(C=NCCCn2ccnc2)c(=O)[nH]c1=O` was 18.1 µM; that for `N#Cc1c(-c2ccccc2Cl)c2c([nH]c1=O)-c1ccccc1OC2` was > 30 µM (inactive).
On to `COc1cc(NC(=O)c2cc([N+](=O)[O-])ccc2NC(=O)CNC2CCCCC2)cc(OC)c1`, for which the AC50 is > 30 µM (inactive).
The value for `Cc1sc2ncnc(NCCCN3CCCC3=O)c2c1C` was 21.5 µM; that for `O=[N+]([O-])c1cc(C(F)(F)F)ccc1NCCCN1CCOCC1` was > 30 µM (inactive).
The value for `O=C(O)COc1c(Cl)cc(/C=C2/NC(=O)NC2=O)cc1Br` was 23 µM.
In the case of `CC(C)(C)NCC(O)COc1ccccc1C(C)(C)C` (stereo not drawn), the AC50 was > 30 µM (inactive).
The result for `Cc1cc(/C=N/Nc2ccc([N+](=O)[O-])cn2)c(C)n1-c1cccc(C(=O)O)c1` reads 14.6 µM.
The result for `O=c1cc(-c2ccc(O)c(O)c2)oc2c1ccc1ccccc12` reads 5.66 µM.
The value for `CC(=O)c1cc(-c2ccc(F)cc2)n(CCC(=O)Nc2cc(C)[nH]n2)c1C` was 11.9 µM.
For the compound `CCOc1ccc(-c2c(C(=O)N/N=C(\C)c3cccnc3)nnn2-c2nonc2N)cc1`, the AC50 is > 30 µM (inactive).
Turning to `Clc1ccc(Nc2ncn[nH]2)cc1`, the AC50 is > 30 µM (inactive).
Consider `COc1ccc(CCNc2cc(C)nc(N)n2)cc1OC`, for which the AC50 was > 30 µM (inactive).
The result for `COc1ccc(C(=O)Nc2nncs2)cc1S(=O)(=O)N1CC(c2ccccc2)CC1=O` (stereo not drawn) reads > 30 µM (inactive).
The value for `COc1cc(/C=C2\S/C(=N/S(=O)(=O)Cc3ccccc3)NC2=O)c([N+](=O)[O-])cc1OC` was > 30 µM (inactive); that for `CN1/C(=C\C=C\C2=[N+](C)c3ccc4ccccc4c3C2(C)C)C(C)(C)c2ccccc21` was 10.3 µM.
The result for `CCOCC(=O)Nc1nc2ccc(OCC)cc2s1` reads > 30 µM (inactive); that for `O=C(COC(=O)c1cc([N+](=O)[O-])ccc1N1CCOCC1)Nc1ccc(Cl)cn1`, 4.79 µM.
On to `COc1cccc(-c2c(C(=O)N/N=C/c3ccoc3)nnn2-c2nonc2N)c1`, for which the AC50 was 7.92 µM.
For `COc1ccccc1/C=N/NC(=O)c1ccccc1Cl`, the AC50 was > 30 µM (inactive).
The result for `CC1(C)CC(=O)c2cnc(NCC3CCCO3)nc2C1` (stereo not drawn) reads > 30 µM (inactive).
The value for `O=C(Nc1sc2c(c1C(=O)O)CCC2)c1cccs1` was > 30 µM (inactive); that for `N#C/C(=C/Nc1ccccc1)c1ccsc1` was > 30 µM (inactive).
The result for `O=C(c1cccnc1NCc1ccccc1)N1CCOCC1` reads > 30 µM (inactive); that for `Cc1ccnc(NC(=O)CCC(=O)N(CC(=O)NCc2ccc(F)cc2)CC2CCCO2)c1` (stereo not drawn), 27.9 µM; that for `c1ccc2[nH]c(Cn3nnc4ccccc43)nc2c1`, > 30 µM (inactive).
Consider `NC1=NC(=O)/C(=C/c2cccs2)S1`, for which the AC50 is > 30 µM (inactive).
The result for `CCN(CC)CCCN(Cc1cc2cc3c(cc2[nH]c1=O)OCO3)C(=O)Nc1ccccc1OC` reads > 30 µM (inactive); that for `CCn1c(SCC(=O)Nc2nc3ccc(OC)cc3s2)nnc1-c1ccoc1C`, 5.81 µM.
The result for `CC1(C)Cc2cccc(C(=O)Nc3ccc(Cl)cc3)c2O1` reads > 30 µM (inactive); that for `Cc1nc(SCC(=O)Nc2ccccc2C(F)(F)F)c(C#N)c(C)c1CC(=O)c1ccc(Br)cc1`, > 30 µM (inactive).
The value for `COc1ccc(C(=O)c2sc(NC(C)C)nc2N)cc1OC` was 0.234 µM; that for `Cc1sc2ncnc(NCc3cccs3)c2c1C` was > 30 µM (inactive); that for `Cc1c(C(=O)N/N=C/c2cccnc2)nnn1-c1nonc1N` was > 30 µM (inactive).
Regarding `C=CCSc1ncnc2c1oc1nc3c(cc12)COC(C)(C)C3`, the AC50 was > 30 µM (inactive).
The value for `CC(C)=CCc1cc(-c2oc3cc(O)cc(O)c3c(=O)c2O)ccc1O` was 9.4 µM.
As for `CCOC(=O)c1cnc2c(C(F)(F)F)cccc2c1N1CCN(C)CC1`, the AC50 was > 30 µM (inactive).
The result for `O=C(NC(=S)NCC1COc2ccccc2O1)c1ccccc1` (stereo not drawn) reads > 30 µM (inactive).
The value for `COc1ccc(Nc2sc(C(=O)c3ccc(Cl)cc3)c(N)c2C(=O)Nc2ccccc2OC)cc1` was > 30 µM (inactive); that for `S=C(Nc1cccc(Cl)c1)Nc1cccc2cnccc12` was > 30 µM (inactive); that for `N#CC(C#N)=Cc1c[nH]c(=O)c(C#N)c1Nc1ccccc1` was 9.4 µM.
The value for `COc1ccc(OC)c(/C=C2\S/C(=N/NC(=O)c3ccc4ccccc4c3)NC2=O)c1` was > 30 µM (inactive).
As to `CCN1C(=O)c2ccc(C(=O)NCc3ccc4c(c3)OCO4)cc2C1=O`, the AC50 was > 30 µM (inactive).
The result for `COC1(OC)N=C(N)C2(C#N)C(c3cccc(Oc4ccccc4)c3)C12C#N` (stereo not drawn) reads > 30 µM (inactive); that for `CCOC(=O)C1=C(CC)OC(N)=C(C#N)C1c1ccc(NC(C)=O)cc1` (stereo not drawn), > 30 µM (inactive); that for `COc1cccc(NC(=O)Nc2cc(Cl)ccc2C)c1`, > 30 µM (inactive).
As to `COc1ccc(S(=O)(=O)Nc2ccc(S(=O)(=O)Nc3nc(C)cc(C)n3)cc2)cc1OC`, the AC50 was > 30 µM (inactive).
The value for `COc1cc(C2C(C#N)=C(N)Oc3n[nH]c(-c4cccs4)c32)cc(OC)c1O` (stereo not drawn) was > 30 µM (inactive); that for `N#CCCN(Cc1ccccc1)S(=O)(=O)c1cccs1` was > 30 µM (inactive).
The result for `N#CC1=C2SCN(Cc3ccccc3)CN2C(=O)CC1c1ccccc1F` (stereo not drawn) reads > 30 µM (inactive).
The value for `Cc1ccc(C2C(C#N)=C(N)Oc3n[nH]c(-c4cccnc4)c32)o1` (stereo not drawn) was > 30 µM (inactive); that for `Cc1ccc2nc(-c3ccccn3)[nH]c2c1` was > 30 µM (inactive); that for `Cc1cccc(C)c1OCC(O)CNC(C)c1ccccc1` (stereo not drawn) was > 30 µM (inactive).
In the case of `COCc1cc(C)nc(OCC(=O)N/N=C/c2ccc(O)cc2)c1C#N`, the AC50 was 13.3 µM.
The value for `Cc1ccc2nc(-c3cccc(N)c3)[nH]c2c1` was > 30 µM (inactive); that for `Cc1cccc(OCC(=O)Nc2ccc3c(c2)C(=O)NC3=O)c1` was > 30 µM (inactive); that for `CCOc1cc(/C=C2\SC(N3CCCCC3)=NC2=O)ccc1O` was > 30 µM (inactive).
Take `CCOC(=O)Nc1nc(C)c(C(=O)c2ccc(Cl)cc2)s1`: the AC50 is > 30 µM (inactive).
For `COc1ccc(N2CCOCC2)c(NC(=O)c2ccc(Br)o2)c1`, the AC50 is 8.71 µM.
As to `Fc1ccc(-c2nnc3ccc(N4CCCC4)nn23)cc1`, the AC50 is 5.64 µM.
Regarding `Cc1c(Nc2ncccc2C(=O)O)cccc1C(F)(F)F`, the AC50 was > 30 µM (inactive).
The value for `CC(/C=N/NC(=O)c1nnn(-c2nonc2N)c1C(C)C)=C\c1ccccc1` was > 30 µM (inactive); that for `COc1ccc2nc(NC(=O)CSc3cn[nH]n3)sc2c1` was 9.56 µM; that for `COc1cc(SC)ccc1C(=O)Nc1nc(C)cc(C)n1` was > 30 µM (inactive).
Turning to `CC1(C)CC(=O)C(C(C2=C(O)CC(C)(C)CC2=O)c2ccco2)C(=O)C1` (stereo not drawn), the AC50 is > 30 µM (inactive).
The value for `Cc1ccc(S(=O)(=O)Nc2ccc(O)c3cccnc23)cc1` was > 30 µM (inactive); that for `CCCC1=C(C(=O)OCC)C(c2ccc(O)cc2)n2ncnc2N1` (stereo not drawn) was 11.2 µM.
The result for `Cc1cc(=O)[nH]c2cc(O)ccc12` reads > 30 µM (inactive).
The value for `O=Cc1c(NCCc2cccc(F)c2)c2ccccc2[nH]c1=O` was 15.2 µM; that for `CCCCC(=O)Nc1nn(CC)c2nc3c(C)cccc3cc12` was > 30 µM (inactive); that for `Cc1cc(C(=O)c2cccs2)c(N)s1` was 15.6 µM.
Turning to `C=CCNC(=S)N1CCN(c2cccc(C(F)(F)F)c2)CC1`, the AC50 is > 30 µM (inactive).
For `O=c1[nH]cccc1-c1nc2ccccc2[nH]1`, the AC50 was 4.92 µM.
The result for `O=C(CSc1ncnc2sc3c(c12)CCC3)NCC1CCCO1` (stereo not drawn) reads > 30 µM (inactive).
In the case of `CCN(CC)S(=O)(=O)c1ccc2oc(C(=O)N3CCOCC3)c(C)c2c1`, the AC50 is > 30 µM (inactive).
Consider `COc1cc(/C(C)=N/NC(=O)c2nnn(-c3nonc3N)c2-c2cccs2)ccc1O`, for which the concentration at half-maximal activity (AC50) is 1.95 µM.
The value for `CC1CCN(Cc2c(C(=O)N/N=C/c3cccc(Cl)c3)nnn2-c2nonc2N)CC1` was 2.73 µM.
As to `CCN1CCN(Cc2c(O)ccc3c2O/C(=C\C=C\c2ccccc2OC)C3=O)CC1`, the AC50 is > 30 µM (inactive).
The result for `O=C(Nc1ccsc1C(=O)O)c1ccc(Cl)cc1` reads > 30 µM (inactive); that for `COc1ccc(NC(=O)CSc2nc3[nH]ncc3c(=O)n2-c2ccccc2OC)cc1OC`, > 30 µM (inactive).

By AC50 is commonly meant the midpoint of the concentration-response curve, whichever way the signal moves.
